These results are taken from ChEMBL document CHEMBL4368861 (Medchemcomm, 2018).

One may read the IC50 as the concentration needed to halve the response being measured.

System in the first data set: not listed separately
The data set can be described thus: in vitro. Conditions: human.
In the case of `Cc1cnc(N2CCN[C@@H](Cc3ccccc3)C2)nc1Oc1ccc(-n2ccnc2)cc1`, the selectivity ratio is 4.9.
The same measure, in the same setting: the result for `CCOC(=O)c1c(NC(=O)c2c(F)c(F)c(F)c(F)c2F)sc(C(N)=O)c1C` reads 2.2; that for `COc1cc(-c2cc(-c3ccc(S(C)(=O)=O)cc3)cnc2N)ccc1O`, 76; that for `CC(C)n1nc(-c2cc3c(Cl)cccc3[nH]2)c2c(N)ncnc21`, 5.8.
Turning to `OCCc1ccc(Nc2nccc(-c3nnc4ccccn34)n2)cc1`, the selectivity ratio is 17.
The same measure, in the same setting: the same measure for `c1ccc(-c2nc(NC3CCCCC3)cc(C3CC3)n2)nc1`: 30.
Same read-out and setting: the result for `Oc1c(I)cc(I)c2cccnc12` [IODOQUINOL] reads 13.
Still for that read-out and setting: the same measure for `COC(=O)c1c(NC(=O)c2c(F)c(F)c(F)c(F)c2F)sc2c1CCCCC2`: 2.2; for `CS(=O)(=O)c1ccc(C(=O)N(CC2CCCO2)c2nc3ccccc3s2)cc1[N+](=O)[O-]` (configuration not stated): 2.3.
On to `COc1ccc2nccc(NC(=O)C3CCN(CCc4ccc(Cl)cc4)CC3)c2n1`, for which the selectivity ratio came out at 0.8.
On the same count and under the same terms, the result for `CC(Oc1ccccc1)C(=O)Nc1nc(-c2ccccn2)cs1` (configuration not stated) reads 11; that for `COc1ccc(OC)c(NCc2ccc3nc(N)nc(N)c3c2Cl)c1`, 21; that for `CN1CCC(NCc2cccc(-c3ccc(S(=O)(=O)NCc4ccccc4)cc3)c2)CC1`, 59.
Same read-out and setting: the result for `CN(C)c1cc(NC(=O)Nc2ccccc2)c2ccccc2n1` reads 5.3.
Same read-out and setting: the result for `CCCn1c(NC(=O)c2ccc3ccccc3n2)nc2ccccc21` reads 3.5.

The next data set has as its system Trypanosoma brucei brucei. The data set can be described thus: microbe, parasite or virus in culture. Conditions: 427. In kind it is functional, organism-based.
For `O=C(Nc1ccc(N2CCNCC2)cc1)c1ccn2ncc(-c3cccc(Cl)c3)c2n1`, it took 1.45 µM to reach half-maximal inhibition (IC50). That is a single-digit micromolar value.
Still for that read-out and setting: the same measure for `Cc1ccc2c(c1C)NC(=O)C21NN=C(c2ccccc2)S1` (configuration not stated): 4.68 µM; for `Cc1noc(C)c1COc1cccc(C(=O)N=c2[nH]cccc2C)c1`: 1.2 µM.
With `COc1cccc(-n2nnnc2S(C)(=O)=O)c1`, the IC50 turned out to be 4.12 µM.
In the case of `O=C(NCCc1ccccc1)c1cc(-c2cccnc2)cnc1NCC1CC1`, the IC50 was 6.02 µM. This IC50 and that of the molecule before are within 1.5-fold of each other.
Still for that read-out and setting: the result for `Cc1nn(C)c(C)c1NS(=O)(=O)c1c(Cl)cc(-c2ccnc(N3CCNCC3)c2)cc1Cl` reads 0.01 µM.
The molecule `N=C(N)c1ccc(-c2cc(-c3ccccc3)on2)cc1` showed an IC50 of 3.5 µM.
On the same count and under the same terms, the same measure for `CNC(=O)C1Cc2ccccc2N1C(=O)Cc1ccc(F)cc1` (configuration not stated): 1.5 µM; for `CCN(CC)S(=O)(=O)c1ccc(C(=O)Nc2cc(C)nn2-c2nc(C)c(C)c(=O)[nH]2)cc1`: 4.3 µM.
Same read-out and setting: the same measure for `O=C(Nc1nc(-c2ccccn2)cs1)c1cncn1-c1ccccc1`: 2.87 µM; for `COc1ccc(C2=NN(C3CCCCCC3)C(=O)[C@@H]3CC=CC[C@H]23)cc1OCCCCOc1ccc(-c2nnn[nH]2)cc1`: 0.5 µM.
Same read-out and setting: the same measure for `c1ccc(Oc2ccc(-c3cc(C4CCOCC4)[nH]n3)cc2)cc1`: 1.8 µM; for `CO[C@@H](C(=O)N1Cc2[nH]nc(NC(=O)c3ccc(N4CCN(C)CC4)cc3)c2C1)c1ccccc1` [DANUSERTIB]: 1.3 µM.
Consider `Cc1ccc(S(=O)(=O)Nc2ccc(CN3CCN(C(=O)c4cccc(C#N)c4)CC3)cc2)cc1`, for which the midpoint of inhibition, the IC50, lay at 0.24 µM. Against the preceding molecule, the IC50 is about 5.4-fold lower.
Regarding `Cc1ncc(-c2ccnc(Nc3ccc(S(C)(=O)=O)cc3)n2)n1C(C)C` [AZD-5438], the midpoint of inhibition, the IC50, lay at 0.14 µM.
`N=C(N)Nc1ccc(-c2ccc(-c3ccc(NC(=N)N)cc3Cl)o2)c(Cl)c1` returned an IC50 of 5.7 µM. Against the preceding molecule, the IC50 is about 41-fold higher.
The same measure, in the same setting: the result for `CCOC(=O)c1c(NC(=O)c2c(F)c(F)c(F)c(F)c2F)sc(C(N)=O)c1C` reads 2.99 µM; that for `CC(C)n1nc(-c2cc3c(Cl)cccc3[nH]2)c2c(N)ncnc21`, 6.1 µM.
For `CN1CCN(S(=O)(=O)c2ccc(-c3ccc4c(Nc5ncc(Cl)cn5)ccnc4c3)cc2)CC1`, the IC50 worked out at 5.3 µM.
The same measure, in the same setting: the same measure for `CC1=Nc2ccc(Cl)cc2C(O)(c2ccc(C)cc2)N1CCN1CCCCC1` (configuration not stated): 4.5 µM.
On the same count and under the same terms, the result for `OCCc1ccc(Nc2nccc(-c3nnc4ccccn34)n2)cc1` reads 2.39 µM; that for `c1ccc(-c2nc(NC3CCCCC3)cc(C3CC3)n2)nc1`, 3.51 µM.
For the molecule `O=C(Nc1ccc(C(F)(F)F)c(C(F)(F)F)c1)c1cc(Cl)ccc1O`, the IC50 worked out at 0.66 µM. This IC50 is about 5.3-fold lower than that of the molecule before.
Still for that read-out and setting: the result for `COc1ccc(C(=N)N)cc1-c1cn(-c2ccc(C(=N)N)cc2)nn1` reads 0.27 µM.
Molecule `CCC(=O)Nc1ccccc1C(=O)Nc1ccccn1` registered an IC50 of 1 µM. This IC50 lies about 3.7-fold higher than the previous one.
Same read-out and setting: the same measure for `O=C(NCCc1ccn(-c2ccccc2)n1)C1CCCCC1`: 0.27 µM; for `Cc1nn2c(=O)c3c([nH]c2c1-c1ccc(Cl)cc1)CCCC3`: 1.8 µM.
In the case of `Nc1nccc2ccc(-c3ccc4nccn4c3)cc12`, half-maximal inhibition (IC50) was put at 3.29 µM. This IC50 is about 1.8-fold higher than that of the molecule before.
On the same count and under the same terms, the result for `COc1ccc(C2=NN(C3CCCCCC3)C(=O)C2(C)C)cc1OCCCCOc1ccc(-c2nn[nH]n2)cc1` reads 2.3 µM; that for `O=C(Nc1ccc2c(c1)B(O)OC2)c1ccccc1C(F)(F)F`, 0.11 µM.
On the same count and under the same terms, the result for `NCCN(C(=O)c1ccc(Cl)cc1Cl)c1ccc(OCc2ccc(Cl)cc2)cc1` reads 0.24 µM.
On the same count and under the same terms, the result for `CS(=O)(=O)c1ccccc1C(=O)N(Cc1ccccc1)c1ccccc1` reads 0.5 µM.
In the case of `O=C(Nc1ccc(F)c(-c2nc3cc(-c4ccccc4)cnc3[nH]2)c1)N1CCCC1`, the IC50 was found to be 0.02 µM. Against the preceding molecule, the IC50 is about 25-fold lower.
`Cc1ccc2[nH]c(C3CCCNC3)c(-c3ccncc3)c2c1` (configuration not stated) registered an IC50 of 5.15 µM. This IC50 lies about 260-fold higher than the previous one.
On the same count and under the same terms, the same measure for `CS(=O)(=O)c1ccc(C(=O)N(CC2CCCO2)c2nc3ccccc3s2)cc1[N+](=O)[O-]` (configuration not stated): 3.49 µM; for `CC(Oc1ccccc1)C(=O)Nc1nc(-c2ccccn2)cs1` (configuration not stated): 3.22 µM.
With `Nc1nc2cc(-c3cncc(Oc4ccc(F)cc4)c3)ccc2[nH]1`, the IC50 worked out at 1.05 µM.
Same read-out and setting: the same measure for `CCc1ccccc1-n1c(C)cn2c3c(=O)n(C(C(=O)OC)C(C)C)c(=O)n(C)c3nc12` (configuration not stated): 0.13 µM.
Same read-out and setting: the same measure for `COc1ccc(OC)c(NCc2ccc3nc(N)nc(N)c3c2Cl)c1`: 2.07 µM; for `CC(C)(C)c1cnc(NC(=O)c2ccccc2O)s1`: 5.45 µM.
Still for that read-out and setting: the result for `O=C(NCc1nnc2n1CCCCC2)c1ccc(-c2ccc(F)cc2)o1` reads 0.23 µM; that for `c1ccc(Oc2ccc(-c3cc(N4CCNCC4)[nH]n3)cc2)cc1`, 5.1 µM; that for `CCCCN(CCCC)c1c(C#N)cc(S(=O)(=O)Nc2ccccc2)cc1C#N`, 1.2 µM.
Take `CC1CCCCN1C(=O)NCCc1coc(-c2ccc(F)cc2)n1` (configuration not stated): the IC50 was 0.13 µM. Against the preceding molecule, the IC50 is about 9.2-fold lower.
The same measure, in the same setting: the result for `CN1CCC(NCc2cccc(-c3ccc(S(=O)(=O)NCc4ccccc4)cc3)c2)CC1` reads 2.38 µM.
Still for that read-out and setting: the result for `COc1ccc(S(=O)(=O)Nc2ccc(CN3CCN(C(=O)c4cccc(C#N)c4)CC3)cc2)cc1` reads 1.1 µM.
Same read-out and setting: the result for `CN(C)c1cc(NC(=O)Nc2ccccc2)c2ccccc2n1` reads 3.36 µM.
Regarding `CNC(=O)c1nn(C)c2c1C(C)(C)Cc1cnc(Nc3ccc(N4CCN(C)CC4)cc3)nc1-2` [MILCICLIB], the IC50 was 0.17 µM.
Still for that read-out and setting: the same measure for `N=C(N)Nc1ccc(-c2ccc(-c3ccc(N=C(N)N)c(Cl)c3)o2)cc1Cl`: 0.52 µM; for `Cc1[nH]c2ccccc2c1C(c1cccs1)N1CCN(C)CC1` (configuration not stated): 1.5 µM; for `O=C(Nc1ccccc1)c1ccc(-c2cc3ccncc3cc2OC2CCNCC2)s1`: 2.72 µM.

For another data set, the system named is Trypanosoma brucei brucei. Description: Antitrypanosomal activity against Trypanosoma brucei brucei by pathogen box screening based assay. In kind it is functional, organism-based.
Conditions: not given
`Cc1nn2c(=O)c3c([nH]c2c1-c1ccc(Cl)cc1)CCCC3` registered an IC50 of 0.5 µM. This lies in the sub-micromolar range.
